These results are taken from US6766183B2, “Long wave fluorophore sensor compounds and other fluorescent sensor compounds in polymers” (Medtronic MiniMed, Inc., priority 1995, dated 2004).

The nature of one data set: Water solubility. In kind it is physicochemical. The text has this:
Exemplary long wavelength glucose-sensing molecule containing an oxazine (Nile Blue) coupled with a phenyl boronate suitable for detection of glucose, following polymer incorporation, in vivo is shown in FIGS. 2 and 3. FIG. 2 provides a comparison of fluorescent excitations of representative fluorophores including the oxazine Nile Blue. The excitation and emission profile of anthracene based compounds are well below that of Nile Blue's fluorescent profile (see, e.g., FIG. 3). […] It is feasible to substitute other oxazines of similar structure for Nile Blue.

Data set [1] can be described thus: Glucose transduction of Nile Blue boronate: fluorescence in DMSO/PBS, ex 621 nm, em 671 nm. As to conditions: for fluorescent intensity increase at 671 nm: ex 621 nm, relative to blank, listed as 1; for fluorescent intensity increase at 671 nm / increase in fluorescent intensity at 671 nm: DMSO/PBS; for increase in fluorescent intensity at 671 nm: separate batch. Here is the method: A typical embodiment of the invention uses Nile Blue as an illustrative oxazine-based fluorophore.
Results: After work-up, the reaction was concentrated to dryness. A sample of the blue residue (˜1 mg), dissolved in DMSO (1 ml), was aliquoted (100 □ L) and dissolved in PBS (20 mL). […] A control fluorescence experiment was performed containing Nile Blue A using the same conditions as mentioned above.
(§1) To a round bottom flask, equipped with a reflux condenser under N2, containing Nile Blue perchlorate salt (42 mg, 0.1 mmol), boronate (28 mg, 0.1 mmoles) and K2CO3 (˜1 g) was added CH3CN (25 mL). The reaction was heated at reflux for 24 hours after which the solvent evaporated and the reaction went to dryness. The sample of the reaction mixture (1 mg, 2.21 mole) was dissolved in DMSO (1 mL). An aliquot (100 μL) was dissolved in PBS (20 mL). A sample of this solution (3 mL) was placed into the fluorolog and fluorescent measurements were made (ex=621 nm, slits at 10 and 20) at various glucose concentrations (0 mg/dL, 150 mg/dL, 300 mg/dL and 450 mg/dL) with a sampling interval of 45 min.
To a round bottom flask, equipped with a reflux condenser under N2, containing Nile Blue perchlorate salt (42 mg, 0.1 mmol), boronate (22 mg, 0.1 mmoles) and K2CO3 (˜1 g) was added CH3CN (25 mL). […] The sample of the reaction mixture (1 mg, […]) was dissolved in DMSO (1 mL). An aliquot (100 μL) was dissolved in PBS (20 mL). A sample of this solution (3 mL) was placed into the fluorolog and fluorescent measurements were made (ex=621 nm, slits at 10 and 20) at various glucose concentrations (0 mg/dL, 150 mg/dL, 300 mg/dL and 450 mg/dL) with a sampling interval of 45 min.
as §1, with “[…])” for “mole)”

The nature of data set [2]: Glucose transduction in PBS, relative fluorescent intensity (FIG. 18 format). Here is the method: FIG. 18 is a graph showing Nile Blue boronate's transduction of glucose in PBS.
The figures provided herein further illustrate various embodiments of the invention and their properties in order to further facilitate artisans' making and using the invention. For example, using the graphic format provided in FIG. 18, experiments confirming properties of Nile Blue were performed with the following results: […]

A short description of data set [3]: Fluorescence excitation and emission wavelengths. The class given is physicochemical. As to conditions: aqueous PBS; for maximum emission wavelength: irradiated at 621 nm. The text has this:
An exemplary oxazine-based biosensor molecule of the present invention utilizes Nile blue as the fluorophore as shown in FIG. 2. The Nile blue-based biosensor molecule has an excitation wavelength of about 625 nm and a maximum emission wavelength of about 675 nm (see, e.g. FIGS. 8). Similar oxazine-based fluorophores suitable for use in embodiments of the present invention may include one or more functional groups selected from the following: aliphatic, aromatic, haloalkane, alcohol, ether, amine, cyano, nitro group, aldehyde, ketone, ester, carboxylic acid, sulfonic acid and phosphoric acid functional groups.
As illustrated above, the oxazine-based molecules in accordance with embodiments of the invention solve the problem of obtaining optimal optical transmission of fluorescence via implanted fluorescent reporter systems of in-vivo polyhydroxylate analyte concentrations. […] Particular embodiments of the biosensor molecules of the invention have at least one maximum wavelength in their emission spectra that is greater than about 600 nm and have at least one wavelength in their emission spectra that is greater than about 650 nm. An exemplary oxazine-based biosensor molecule in accordance with embodiments of the invention utilizes Nile Blue as a fluorophore. This Nile Blue biosensor molecule generally has an excitation wavelength of about 625 nm and an emission wavelength of about 675 nm in an aqueous Phosphate Buffered Saline (PBS) solution. Particular embodiments of the invention, however, may emit in the near infrared (IR) region of the spectrum.
Results: After work-up, the reaction was concentrated to dryness. A sample of the blue residue (˜1 mg), dissolved in DMSO (1 ml), was aliquoted (100 □ L) and dissolved in PBS (20 mL). A sample PBS solution (3 mL) contained in a cuvette and irradiated at 621 nm, gave rise to the appearance of a maximum emission peak at 671 nm. Successive additions of glucose (150 mg/dL), added to the cuvette, led to an increase in […] intensity, at 671 nm, after each addition. The first addition of glucose gave rise to a 7.5% increase in fluorescence at 671 nm. After the second addition of glucose, the intensity rose 14.3% relative to the blank. Addition of the third aliquot of glucose gave an 18.8% rise in fluorescent intensity relative to the blank. […] A control fluorescence experiment was performed containing Nile Blue A using the same conditions as mentioned above.

Consider `CC[N+](CC)=c1ccc2nc3c(cc(N)c4ccccc43)oc-2c1` [Nile Blue, Nile Blue A, reference compound], for which, in “Water solubility”, the solubility in water result is given as “highly soluble in water”. For the same compound, the “glucose transduction (control experiment)” value in data set [1] (DMSO/PBS solutions, same conditions as the boronate) is recorded as “incapable of transducing glucose”.
Turning to Nile Blue A, the relative fluorescent intensity is reported as 1.0 in data set [2] (glucose 0 mg/dl); 1.085 in data set [2] (glucose 150 mg/dl); 1.239 in data set [2] (glucose 300 mg/dl); 1.398 in data set [2] (glucose 450 mg/dl); 1.513 in data set [2] (glucose 1000 mg/dl).
Nile Blue Boronate: the “fluorescent intensity increase at 671 nm” value came to 7.5% in data set [1] (glucose 150 mg/dL), 14.3% in data set [1] (glucose 300 mg/dL) and 18.8% in data set [1] (glucose 450 mg/dL). For the same compound, the glucose transduction entry in data set [1] (in water) is on record as “transduces glucose exceptionally well”. In addition, the results for the “increase in fluorescent intensity at 671 nm” value in data set [1] (glucose 150 mg/dL (first addition)), in data set [1] (glucose 300 mg/dL (second addition)) and in data set [1] (glucose 450 mg/dL (third addition)) were 23.4%, 37.8% and 47.4%, respectively. In addition, the excitation wavelength result in data set [3] is “about 625 nm”. In addition, the figures for the maximum emission wavelength in data set [3] (listed as 1), in data set [3] (listed as Nile Blue biosensor molecule) and in data set [3] (listed as Nile blue-based biosensor molecule) were 671 nm, “about 675 nm” and “about 675 nm”, respectively.
